This note sets out measurements from PMC7041945, “Misfolded proteins bind and activate death receptor 5 to trigger apoptosis during unresolved endoplasmic reticulum stress” (eLife, 2020).

In one assay the test system is MPZ. Briefly: qPCR of transfected MPZ transcript (primers 296+297), normalized to GAPDH. The class given is cell-based. The following applies: qPCR Rep 2, WT MPZ GFP 1000 ng, or empty traffo + Tg; for 2^-(deltaCq), MPZ: vs avg GAPDH.
The subject of assay [1] is GADD34 mRNA in HCT116 cells. Put plainly: qPCR of GADD34 transcript. The format is cell-based, Homo sapiens. The settings on record: HCT116, 100 nM for 24 hours, norm to GAPDH.
Assay [2] deals with PARP / caspase 8 / caspase 3 in HCT116 cells. Put plainly: Western blot of HCT116 lysates (PARP, caspase 8 and caspase 3 cleavage, DR5 level). The format is cell-based, Homo sapiens. The following applies: HCT116, 24 hr, titration of construct. As for the experimental part: Media and cells for each sample were collected by cell scraping into cold PBS followed by a subsequent wash with 1 ml of cold PBS. The cell pellet was then resuspended in cold lysis buffer (30 mM HEPES pH 7.2, 150 mM NaCl, 1% Triton X100, 1x Roche protease inhibitor) and lysed via needle shearing on ice. Samples were centrifuged at 1000xg for 5 min, and the supernatants were mixed with sample buffer to a final concentration of 1% SDS, 62.5 mM Tris-HCl pH 6.8, 10% glycerol, 0.1% bromophenol blue, 50 mM DTT. Samples were boiled at 95°C and loaded on SDS-PAGE gels (GenScript). Samples were subsequently transferred onto nitrocellulose membranes, blocked with Odyssey buffer (Licor) for 1 hr at RT, and probed with primary antibodies diluted 1:1000 (unless otherwise specified) in Licor Odyssey buffer supplemented with 0.1% Tween 20% at 4°C overnight.
Bound primary antibodies were probed by HRP-conjugated secondary antibodies (Amersham, Piscataway, NJ, 1:10000) using enhanced chemiluminescence (SuperSignal; Thermo Scientific, Waltham, MA) detected by standard film or through the ChemiDoc XRS+ Imaging System (Bio-Rad).
On the technique in general: In western blotting, separated proteins are transferred to a membrane and probed.

Assay [3] concerns caspase 8 in HCT116 GFP-Trap immunoprecipitates. Put plainly: Caspase 8 activity (caspase glo 8) of GFP immunoprecipitates (beads). The format is cell-based, Homo sapiens. The settings on record: for Mean ± SEM (IP): GFPTrap beads, relative to GFP; for 95% confidence interval of difference (IP) / Difference between means (IP): vs. GFP. As for the experimental part:
15 cm dishes were seeded with 4 million HCT116 cells and allowed to recover for 18 hr prior to transfection. Samples were then transfected for 24 hr with the GFP-tagged ER trafficked protein, cytosolic GFP, or empty vector. To harvest apoptotic and living cells for each sample, all media and washes were collected. Cells were scraped in 2 ml of cold PBS and combined with the media and washes. Samples were centrifuged to pellet cells, washed with 1 ml cold PBS, and flash frozen in liquid N2 prior to lysis.
The cell pellets were resuspended in 750 μl of 30 mM HEPES pH 7.2, 150 mM NaCl, 1% Triton X-100 with 1x Roche protease inhibitor cocktail (if used subsequently for caspase glo 8 assay) or with 5x Roche protease inhibitor cocktail (if used for immunoblotting). The cells were lysed by mechanical shearing through a 25G needle for 13–15 plunges followed by incubation on ice for 30 min. The lysate was centrifuged at 2000xg for 5 min to remove debris and then incubated with 30 μl of GFP-Trap magnetic agarose beads (Chromotek gtma-20) for 4 hr at 4°C. The beads were then washed with 750 μl of lysis buffer for 10 min at 4°C for three rounds.
For measuring caspase activity, a fifth of the beads was resuspended in 40 μl of 30 mM HEPES pH 7.2, 150 mM NaCl, 1% Triton X-100. 10 μl of the resuspended mixture was incubated with 10 ul of the caspase glo 8 luminogenic substrate (Promega #PRG8200) for 45 min at RT before measuring luminescence.

Take `C/C=C(/C)C(=O)O[C@H]1C(C)=C2[C@H]([C@@H]1OC(=O)CCCCCCC)[C@@](C)(OC(C)=O)C[C@H](OC(=O)CCC)[C@@]1(O)[C@H]2OC(=O)[C@@]1(C)O` [thapsigargin, reference compound]: the “avg. fold induction relative to WT MPZ DMSO, MPZ” value with MPZ (mean of 3) amounted to 9.712 fold. The “fold induction relative to WT MPZ DMSO, MPZ” value in the assay with MPZ (replicate 1) worked out at 3.402 fold; in the assay with MPZ (replicate 2), 14.9405 fold; with MPZ (replicate 3), 10.7918 fold. Also, the “2^-(deltaCq), MPZ” value stood at 0.0001664 in the assay on MPZ (replicate 1), 0.0007308 in the assay with MPZ (replicate 2) and 0.0005279 in the assay with MPZ (replicate 3). The “avg. fold induction, GADD34” value in assay [1] turned out to be 11.3183.

As to “FTWRYQPEGGRDAISIFHYA [MPZ-ecto peptide-eGFP, expressed construct: MPZ ectodomain replaced by the MPZ-ecto peptide, GFP-tagged]”, the “PARP cleavage and caspase activity” value in assay [2] is “induced more PARP cleavage and caspase activity than similar or higher levels of the peptides containing Glu substitutions”; in assay [2] (listed as WT MPZ-ecto), “PARP cleavage and caspase activity measured in cell lysates were increased”.

With “INS-GFP: GFP-tagged proinsulin expressed from plasmid”, the “Mean ± SEM (IP)” value in assay [3] (n=2) is listed as 1.500 ± 0.1400, n=2. For the same compound, the “fold change relative to GFP (GFPTrap beads)” value was found to be 1.64 fold change in assay [3] (Rep 1), 0.68 fold change in assay [3] (Rep 2) and 1.36 fold change in assay [3] (Rep 3). Also, the entries for the “GFPTrap beads RLUs” value in assay [3] (replicate 1), in assay [3] (replicate 2) and in assay [3] (replicate 3) were 115.391 RLUs, 47.845 RLUs and 95.69 RLUs, respectively. Also, the “95% confidence interval of difference (IP)” value in assay [3] lay within 0.1175 to 0.8825. Also, the “Difference between means (IP)” value in assay [3] is listed as 0.5000 ± 0.1202.

In the case of “RHO-GFP: GFP-tagged rhodopsin expressed from plasmid”, the “caspase 8 activity of immunoprecipitates” value in assay [3] (GFP pulldown) is “enriched for DR5 protein and caspase 8 activity more robustly than INS-GFP”. The “Mean ± SEM (IP)” value in assay [3] (n=3) is recorded as 4.840 ± 0.2227, n=3. Moreover, the “fold change relative to GFP (GFPTrap beads)” value was determined as 4.68 fold change in assay [3] (Rep 1), 4.56 fold change in assay [3] (Rep 2) and 5.28 fold change in assay [3] (Rep 3). For the same compound, the “average fold change relative to GFP (GFPTrap beads)” value in assay [3] (average of replicates) is on record as 4.84 fold change. Also, the “GFPTrap beads RLUs” value turned out to be 329.286 RLUs in assay [3] (replicate 1), 320.842 RLUs in assay [3] (replicate 2) and 371.502 RLUs in assay [3] (replicate 3). Also, the “95% confidence interval of difference (IP)” value in assay [3] lay within 3.209 to 4.472. Besides, the “Difference between means (IP)” value in assay [3] was found to be 3.840 ± 0.2275.
